Patent publication US8741840B2, “BMP-7 for use in treating neointimal hyperplasia” (Washington University, priority 2008, dated 2014)

Assays:
[1] = system: LDLR−/− high fat fed mice; experiment: Histology of proximal aorta (alizarin red): calcified atherosclerotic plaques; type: in vivo, mouse; conditions: for size of the atherosclerotic lesions: proximal aorta (FIG. 3); for plaque associated calcium deposition: proximal aorta, alizarin red stain (FIG. 3)
Text: Tissue Preparation: Resected specimens were flash frozen in liquid nitrogen, then divided as follows: the heart, ascending aorta and aortic arch were separated from the descending aorta, and bisected sagittally through the aortic outflow tract. The descending aorta was bisected coronally, approximately halfway along its length. In order to visualize calcification in the tissue sections, Slices (5 μm thick) were cut and stained with von Kossa and Trap staining.
Additional mice were enrolled to the study for qualitative analysis of aortas to quantitate the effects of the treatments, because aortas of the experimental animals were destroyed by the technique of quantifying the aortic calcium content. Vascular calcification was largely aortic atherosclerotic plaque associated (FIG. 3), and punctate calcifications in the tunica media were observed. Panel A: Large lipid laden plaque (between arrows) in proximal aorta of a sham-operated high fat fed LDLR−/− mouse. Thick arrows identify focal calcifications in the base of the plaque. Panel B: A large calcified plaque (between arrows) in the proximal aorta of a CKD high fat fed LDLR−/− mouse. Panel C: A large lipid laden plaque (between arrows) in the proximal aorta of a BMP-7 treated CKD high fat fed LDLR−/− mouse. The stain is alizarin red. Magnification is 400× in A-C.

[2] = Blood tests: serum biochemical parameters in the various groups of animals; type: in vivo, mouse; conditions: serum; LDLR-/-, fat diet, CKD, 28 weeks post natal; BMP-7 10 μg/kg IP weekly or binder 3% in diet
Protocol: Animals were sacrificed under anesthesia 28 weeks post natal. At the time of sacrifice, blood was taken by intracardiac stab, and the heart and aorta dissected en bloc. The BMP-7 treated group received intraperitoneal injection of BMP-7 10 μg/kg dry weight once weekly in 100 μl vehicle [mannitol (5% w/v), NaAcetate buffer (20 mM, pH 4.0-4.5), sterile water].
Animals were allocated to one of seven CKD high fat fed groups after the second surgery: Other control Groups included LDLR−/− sham operated mice on chow diet, and LDLR−/− mice with CKD on chow diet. C57B16 WT mice fed chow served as the normal benchmark source. […] Group 1 were LDLR−/− mice on the high fat diet sacrificed at 22 weeks. Group 2 were LDLR−/− mice with CKD fed the high fat diet and treated weekly from 22 to 28 weeks with vehicle IP. […] Group 3 was the first treatment group. These were LDLR−/− mice with CKD on high fat diet that received BMP-7 treatment (10 μg/kg IP weekly). Group 4 were LDLR−/− mice with CKD on high fat diet treated with sevelamer CO3 1%. Group 5 were LDLR−/− mice with CKD on high fat diet treated with sevelamer CO3 3%. […] Once the mice were randomized into groups, they were allowed to develop calcification from weeks 14 through weeks 22 post natal. Therapy was initiated at 23 weeks postnatal and continued until week 28 postnatal at which time the mice were examined.
Blood tests: Serum was analyzed on the day of blood draw for blood urea nitrogen [BUN], cholesterol, calcium and phosphate by standard laboratory methods. Before initiation of therapy, blood was obtained through saphenous vein. At the time of sacrifice, blood was obtained through intracardiac stab.

hVSMC = experiment: RT-PCR of osteoblastic differentiation program genes in hVSMC; type: cell-based, human; conditions: Noggin 100 ng/ml, high phosphorus media (FIG. 6B)
Protocol: (§1) Cell Culture: Human adult aorta were obtained from seven cadaveric organ donors rejected because of atherosclerosis by Mid-America Transplant Services (St. Louis, Mo.) and enzymatically digested to obtain Human Smooth Muscle Cells (HSMC). Medial tissue was separated from the adventia and intima and digested with collagenase type I (Worthington, Lakewood, N.J.) 2 mg/ml for 1 hr, and washed with Hank's balanced salt solution (HBSS). Further digestion followed with collagenase type II 1 mg/ml (Worthington, Lakewood, N.J.) and elastase 0.25 mg/ml (Worthington, Lakewood, N.J.) for 4 hrs. Cell suspensions were washed twice with HBSS and cultured in T-75 flasks for three weeks in a 95%/5% air/CO2 humidified environment at 37° C. The growth medium used was DMEM containing […] glucose (high glucose), 10% fetal bovine serum (FBS, Atlas, Fort Collins, Colo.), 1 mM sodium pyruvate, 100 units/ml Penicillin and […] Streptomycin (Sigma, St Louis, Mo.). Cell purity was assessed by positive immunostaining for α-smooth muscle actin and calponin and for the absence of von Willebrand factor. In all experimental protocols, cells were seeded at 1×10^5 cells/well in six-well plates. Medium was changed on the first day and every third day thereafter. In all cases, cells used were between passages two and five (Table 3).
RT-PCR: RNA was extracted from cell cultures using RNeasy Mini Kits (Qiagen, Valencia, Calif.). Semi-quantitative RT-PCR was conducted using Roche 1st Strand cDNA Synthesis Kit (Indianapolis, Ind.) and PCR kit from Invitrogen (Grand Island, N.Y.) according to manufacturer's instructions using a two-step method. 1 μg of total RNA was reverse transcribed and random primers were added for 60 min at 42° C., prior to PCR. Forward and Reverse primers (Table 4) were added and the reactions subjected to PCR for 20-35 cycles. The number of cycles necessary to amplify cDNA but remain within the exponential amplification range was determined for each primer set. GAPDH was used as internal standard to assess loading. Genomic contamination was assessed by heat inactivation of the reverse transcriptase prior to RT-PCR. Primers were designed using Vector NTI soft ware (Invitrogen, Grand Island, N.Y.) and optimal conditions for each prime pairs were determined (Table 4). A Perkin-Elmer DNA Thermal Cycler was used to perform the reaction. Products were separated on a 2% agarose E-gel (Invitrogen, Grand Island, N.Y.), and visualized with ethidium bromide. The band intensity was analyzed first by scanning the gel on a Typhoon 9410 gel imager (Amersham Biosciences), quantified by using TotalLab software v2003.03 (Nonlinear Dynamics, Durham, N.C.) and normalized for loading by comparison to GAPGH. Negative controls were performed by inactivating the reverse transcriptase by boiling for 5 min prior to RT-PCR to insure that genomic DNA was not amplified.
Stimulation of osteoblastic differentiation through osterix induction. […] Osterix (E) was only weakly expressed in basal culture conditions. Phosphorus stimulated transcription of osterix (E). […] The data in A-E were normalized to the expression level in basal culture conditions and expressed as fold induction, mean±SEM, n=3. In: Principles of Bone Biology, edited by Bilezikian J P et al., New York, Academic Press, 1996, pp 51-67; Hoffmann H M et al., Proc. Nat. […]

[3] = system: human vascular smooth muscle cells (hVSMC) isolated from atherosclerotic donors; experiment: Phosphorus stimulated matrix mineralization (matrix Ca content) in hVSMC cultures; type: cell-based; conditions: Noggin 10-100 ng/ml added to high phosphorus media (FIG. 6A)
Protocol: as §1
Induction of Calcification: At the time of confluence, cells were switched to mineralization medium consisting of DMEM supplemented with 1 or 2 mM Pi. For cells exposed to BMP-7 treatment, fresh mineralization medium containing either vehicle (mannitol, acetic acid, acetate) or BMP-7 in vehicle was added at 0.1, 1.0, 10, or 100 ng/ml. The medium was changed every two or three days. […] Calcium content was quantified and normalized to cellular protein as described. (Jono 2000; Moe S. M. et al., Kidney Int 67:2295-2304, 2005)^11;52
In vitro matrix mineralization. […]

Molecule	size of the atherosclerotic lesions [1]	plaque associated calcium deposition [1]	Phosphorus [2]	phosphorus induced osterix expression (hVSMC)	matrix mineralization stimulated by phosphorus [3]
O=C([O-])[O-].[Ca+2] [CaCO3]	did not decrease the size of the atherosclerotic lesions	diminished plaque associated calcium deposition			
O=C([O-])[O-].O=C([O-])[O-].O=C([O-])[O-].[La+3].[La+3] [Lanthanum, LaCO3]	did not decrease the size of the atherosclerotic lesions	diminished plaque associated calcium deposition	9.7 ± .4 mg/dL		
Noggin: bone morphogenetic protein specific inhibitor (BMP-2 antagonist), from Pepro Tech. (protein, UniProt Q13253 28-232, looked up) Noggin: QHYLHIRPAPSDNLPLVDLIEHPDPIFDPKEKDLNETLLRSLLGGHYDPGFMATSPPEDRPGGGGGAAGGAEDLAELDQLLRQRPSGAMPSEIKGLEFSEGLAQGKKQRLSKKLRRKLQMWLWSQTFCPVLYAWNDLGSRFWPRYVKVGSCFSKRSCSVPEGMVCKPSKSVHLTVLRWRCQRRGGQRCGWIPIQYPIISECKCSC				blocked phosphorus induced osterix expression	inhibited matrix mineralization stimulated by phosphorus
